Source: patent US20250205369A1, “DENDRIMER COMPOSITIONS AND USE IN TREATMENT OF NEUROLOGICAL AND CNS DISORDERS” (THE JOHNS HOPKINS UNIVERSITY, priority 2014, published 2025)

Assays:
[1] = test system: MeCP2-null mice; test: NAC and D-NAC therapy in MeCP2-null (RTT) mice: survival, behavior, appearance; type: in vivo; conditions: MeCP2-null pups
Protocol: Detailed materials and methods used in the experiments below, including protocols for making the dendrimers-Cy5 and dendrimers-drug conjugates, have been described by Kannan S et al Sci. Transl. Med., 4:130ra46 (2012) and in U.S. Pat. No. 8,889,101.
RTT mice were the Adrian Bird model available from Jackson Laboratory.
Weight and behavior were also assessed. Cytokines were measured using standard mice primers for the assessment of inflammatory markers (Kannan S et al Sci. Transl. Med., 4:130ra46 (2012)).
Conjugation of dendrimer conjugates. The conjugation of dendrimers to Cy5 was done using previously reported methods (Kannan et al., Science Trans. Med (April 2012). For drug experiments, dendrimers were conjugated to N-acetyl-cysteine and administered at doses ranging from 2-20 mg/kg at differing time points.
The mice were injected with D-drug or PBS every 3-4 days, Statistical analysis. The data was analyzed for the reproducibility using Student's t-test to determine the significance between two groups. A p-value equal to or less than 0.05 was considered significant.
Animals were videotaped prior to treatment every 3-4 days, and mobility, gait, tremors, paw clenching, paw clenching time, paw wringing, and respiration were all scored on a scale of 0-3, where ‘0’ indicates the worst score and ‘3’ is best or normal. […]

[2] = test system: microglial cells; test: GSH depletion, ROS, NO, H2O2 and nitrite in microglial cells; type: cell-based; conditions: highest concentration (5 mM)
[3] = test system: LPS-induced brain injury in a neonatal rabbit model of cerebral palsy; test: LPS-induced brain injury in neonatal rabbit model of cerebral palsy; type: in vivo
Protocol: The therapeutic efficacy of GA-PAMAM-S-S-NAC dendrimer conjugate was evaluated after two days of animal treatment with lipopolysaccharide (LPS) to induce white matter injury and hypomyelination in the developing rabbit brain (an animal model of Cerebral Palsy).

[4] = test system: plasma protein; conditions: free drug; cited from earlier work

Q: Which “Safety / toxicity from survival” value ([1]; twice weekly therapy) does the source give for `CC(=O)N[C@@H](CS)C(=O)O` [NAC, N-acetyl cysteine] here?
A: potential toxicity

Q: What about the “Survival (Kaplan-Meier) compared to non-treated animals” value ([1]; twice weekly, 10 mg/kg (NAC basis) from PND21) of the same compound?
A: worse survival than non-treated Rett mice

Q: What about the “Reduction of H2O2 levels” value [2] of the same compound?
A: 30-40%

Q: What about the “Reduction of nitrite levels” value [2] of the same compound?
A: 30-40%

Q: And the “Dose eliciting identical responses” value ([3]; free NAC vs conjugate)?
A: 100 mg/kg

Q: And the “Fetal inflammation response and motor deficits compared to saline-treated kits” value ([3]; rabbit kits)?
A: decrease in fetal inflammation response with improvement of motor deficits

Q: What about the Plasma protein binding [4] of the same compound?
A: very high plasma protein binding
